Experimental data taken from patent US20080318987A1, “METHODS FOR MODULATING BONE FORMATION AND MINERALIZATION” (priority 2007, published 2008).

Columns and labels:
WWP1 = target: T1, WWP1 (Mus musculus, UniProt Q8BZZ3); assay: OSE2 (osteocalcin) luciferase reporter assay, primary screen; type: cell-based, murine
T1 construct: The LKO.1 lentiviral vectors expressing RNAi against murine WWP1; endogenous in cells; host or cells: C3H10T1/2 (murine mesenchymal stem cell line)
Experimental: A cell-based reporter assay was modified for use as a primary screen. It is based on the inhibition by WWPI of Runx2 activation of a target promoter sequence from the osteocalcin gene. The murine mesenchymal stem cell line, C3H10T1/2 was maintained in DMEM+10% FBS. Cells were seeded overnight in a 12-wlel dish at 8×10^4 cells/well and transfected with the multimerized osteocalcin (OSE) luciferase (6×OSE2) reporter gene plasmid and combinations of expression constructs, as indicated, by Effectene (Qiagen). Total amounts of transfected DNA were kept constant by supplementing with control empty expression vector plasmids. All cells were cotransfected with pRL-TK (Promega) to control for transfection efficience. Forty-eight hours after transfection, cells were harvested and lysed in 1×Passive Lysis Buffer (Promega) and luciferase assays performed using the Dual-Luciferase Reporter Assay System (Promega).
Runx2 transactivation function in luciferase reporter assays was enhanced in WWPli cells. The LKO.1 lentiviral vectors expressing RNAi against murine WWP1, and GFP were cotransfected along with D8.9 and VSV-G plasmids into […] cells utilizing Effectene (Qiagen).

[1] = tested on: primary human mesenchymal stem cells (MSCs); assay: Human osteoblast differentiation in vitro (mineralization); type: cell-based; conditions: compound included in the MSC osteoblast differentiation culture system
Experimental: This cell-based assay uses a 96-well format in which primary human mesenchymal stem cells (MSCs) are differentiated into osteoblasts following an established protocol that results in a high rate of differentiation. To induce osteoblast differentiation, MSC are seeded at a low density (3.1×10^3 cells per cm2) and cultured in media containing β-glycerolphosphate and ascorbic acid for fourteen days. For testing of candidate compounds, MSCs will be differentiated in the presence of the compounds for the duration of the 14-day culture period. Osteoblast differentiation is then assayed via a simple colorometric readout that reflects the levels of cellular alkaline phosphates (ALP), an enzyme present in differentiating osteoblasts but absent in MSCs. ALP levels are then normalized to cell number, which is measured by utilizing the Alamar blue assay. Mineralization can be assessed by staining with xylenol orange. The screen and the 96-well format will allow multiple compounds to be tested at various concentrations. A substantial number of compounds may be identified that are active at a nanomolar concentration.

T1 sequence (Q8BZZ3 whole entry): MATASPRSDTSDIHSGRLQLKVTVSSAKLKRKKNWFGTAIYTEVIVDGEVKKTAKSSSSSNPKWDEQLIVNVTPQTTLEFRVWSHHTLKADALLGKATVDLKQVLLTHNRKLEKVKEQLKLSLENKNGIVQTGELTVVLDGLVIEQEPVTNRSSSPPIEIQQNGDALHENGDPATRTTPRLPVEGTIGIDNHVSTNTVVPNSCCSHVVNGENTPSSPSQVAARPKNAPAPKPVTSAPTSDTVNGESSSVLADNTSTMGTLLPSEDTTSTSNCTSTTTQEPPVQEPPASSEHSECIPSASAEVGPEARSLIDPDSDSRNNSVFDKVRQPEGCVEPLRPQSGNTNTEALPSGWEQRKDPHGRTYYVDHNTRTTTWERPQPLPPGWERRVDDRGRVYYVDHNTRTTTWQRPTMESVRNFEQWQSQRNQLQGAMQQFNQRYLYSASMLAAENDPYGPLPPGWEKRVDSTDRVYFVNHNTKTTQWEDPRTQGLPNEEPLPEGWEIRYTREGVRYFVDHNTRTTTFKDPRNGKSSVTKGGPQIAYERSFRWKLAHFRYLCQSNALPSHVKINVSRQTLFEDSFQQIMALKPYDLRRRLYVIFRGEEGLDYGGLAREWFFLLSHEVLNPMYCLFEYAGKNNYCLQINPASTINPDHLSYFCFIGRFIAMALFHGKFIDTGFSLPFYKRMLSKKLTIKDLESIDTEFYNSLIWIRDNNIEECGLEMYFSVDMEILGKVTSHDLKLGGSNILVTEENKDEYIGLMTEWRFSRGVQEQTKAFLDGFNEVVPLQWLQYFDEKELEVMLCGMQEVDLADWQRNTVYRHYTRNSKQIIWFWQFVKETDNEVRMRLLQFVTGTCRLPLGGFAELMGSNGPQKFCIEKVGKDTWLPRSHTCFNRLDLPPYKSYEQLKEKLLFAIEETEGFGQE

O=c1[nH]cc(CS(=O)(=O)Cc2c[nH]c(=O)[nH]c2=O)c(=O)[nH]1 [5,5′-(sulfonyldimethylene)diuracil]
Runx2 transactivation in the OSE2 reporter assay (WWP1; C3H10T1/2 cells, 6xOSE2 luciferase reporter): increase Runx2 transactivation | WWP1 inhibition inferred from the OSE2 reporter assay (WWP1; concluded from increased Runx2 transactivation): inhibit WWP1 | formation of mineralized nodules [1]: substantially increased formation of mineralized nodules
